Results from patent US20080182842A1, “L-alanine derivatives as a5beta1 antagonists” (ASTRAZENECA AB, priority 2007, published 2008).
pIC50: −log10 of the molar value.

Biological target: α5β1 integrin (Homo sapiens, UniProt P05556+P08648)
Test: In vitro binding assay (a): inhibition of binding of α5β1 integrin to fibronectin fragment Fn9-10 (Origen electrochemiluminescence)
Conditions: recombinant human α5β1 vs Fn9-10 ligand; geometric mean where tested more than once
From the text: (a) In Vitro Binding Assay
The assay determined the ability of compounds to inhibit binding of α5β1 integrin to a cognate ligand, a fragment of human fibronectin. The assay used Origen technology (IGEN International) to measure the compound activity. Briefly, α5β1 integrin was coated onto epoxy-paramagnetic beads (Dynal Biotech UK, Bromborough, Wirral, CH62 3QL, UK, Catalogue No 140.11) and biotinylated-fibronectin ligand was coupled to strepatividin labeled Tag-NHS-Ester (BioVeris Corporation, Witney, Oxfordshire, OX28 4GE, UK, Catalogue No 110034). The ruthenium-labeled tag emits an electrochemiluminescence signal upon stimulation which is detected by the Origen reader. Thus, interaction of integrin and ligand causes association of bead and tag, and the resulting electrochemiluminescence signal reflects the level of integrin interaction with fibronectin.
20 μg of recombinant human α5β1 was coated onto 4×10(7) epoxy-paramagnetic beads according to manufacturers instructions at 4° C. for 24 hours. Integrin coating and corresponding activity was subsequently measured for each batch but typically, 25 ng of coated protein was used per assay well.
A DNA fragment encoding the domains 9-10 (amino-acids 1325-1509) of human fibronectin (Swiss-Prot Accession No. P02751) was isolated from cDNA libraries using standard molecular biology and PCR cloning techniques. The cDNA fragment was sub-cloned into a pT73.3 expression vector containing a GST-epitope tag (developed at AstraZeneca; Bagnall et al., Protein Expression and Purification, 2003, 27: 1-11). Following expression in E. coli, the expressed protein, termed Fn9-10, was purified using the GST-tag using standard purification techniques. The recombinant Fn9-10 was subsequently biotinylated using a EZ-link Sulfo-NHS-LC-Biotinylation kit (Perbio Science UK Ltd., Cramlington, Northumberland, NE23 1WA, UK, Catalogue No. 21335) and made to give a final concentration of approximately 1 mg/ml. Tag-NHS-Ester was labeled with streptavidin by incubation at room temperature following manufacturers instructions and buffer-exchanged into PBS to give a concentration of 0.5 mg/ ml. Immediately prior to the assay, biotinylated-Fn9-10 and Streptavidin-labeled Tag were diluted in Assay Buffer to give a final concentrations of 0.6 ug/ml and 1.5 ug/ml respectively. The Fn9-10 and Tag solutions were then mixed together in equal volumes and incubated on ice for at least 30 minutes prior to the assay.
Test compounds were prepared as 10 mM stock solutions in DMSO (Sigma-Aldrich Company Ltd, Gillingham, Dorset SP8 4XT Catalogue No. 154938) and serially diluted with 4% DMSO to give a range of test concentrations at ×4 required final concentration. Aliquots (20 μl) of each compound dilution were placed into each well of a 384-well round bottomed polypropylene plate (Matrix Technologies, Wilmslow, Cheshire, SK9 3LP, Catalogue No. 4340 384). Each plate also contained control wells: maximum signal was created using wells containing 20 μl of 4% DMSO, and minimum signal corresponding to no binding was created using wells containing 20 μl of 80 mM EDTA (Sigma Catalogue No. E7889).
For the assay, 25 ng(20 ul) of a5b1-bead suspension and 40 μl of the Fn9-10/Tag pre-incubated solution were added to each well containing 20 μl of compound or control solution. Assay plates were then incubated at room temperature for a minimum of 6 hours before being analysed on an Origen plate reader. The minimum value was subtracted from all values, and the signal was plotted against compound concentration to generate IC50 data.
The data in the above table was generated in an assay substantially as described above in relation to Binding Assay (a). Some of the compounds shown in the table were tested more than once in the assay. For those compounds the IC50 value shown is the geometric mean of the measured IC50 values. […]

α5β1 integrin, sequence (P08648 42-894 limits assumed): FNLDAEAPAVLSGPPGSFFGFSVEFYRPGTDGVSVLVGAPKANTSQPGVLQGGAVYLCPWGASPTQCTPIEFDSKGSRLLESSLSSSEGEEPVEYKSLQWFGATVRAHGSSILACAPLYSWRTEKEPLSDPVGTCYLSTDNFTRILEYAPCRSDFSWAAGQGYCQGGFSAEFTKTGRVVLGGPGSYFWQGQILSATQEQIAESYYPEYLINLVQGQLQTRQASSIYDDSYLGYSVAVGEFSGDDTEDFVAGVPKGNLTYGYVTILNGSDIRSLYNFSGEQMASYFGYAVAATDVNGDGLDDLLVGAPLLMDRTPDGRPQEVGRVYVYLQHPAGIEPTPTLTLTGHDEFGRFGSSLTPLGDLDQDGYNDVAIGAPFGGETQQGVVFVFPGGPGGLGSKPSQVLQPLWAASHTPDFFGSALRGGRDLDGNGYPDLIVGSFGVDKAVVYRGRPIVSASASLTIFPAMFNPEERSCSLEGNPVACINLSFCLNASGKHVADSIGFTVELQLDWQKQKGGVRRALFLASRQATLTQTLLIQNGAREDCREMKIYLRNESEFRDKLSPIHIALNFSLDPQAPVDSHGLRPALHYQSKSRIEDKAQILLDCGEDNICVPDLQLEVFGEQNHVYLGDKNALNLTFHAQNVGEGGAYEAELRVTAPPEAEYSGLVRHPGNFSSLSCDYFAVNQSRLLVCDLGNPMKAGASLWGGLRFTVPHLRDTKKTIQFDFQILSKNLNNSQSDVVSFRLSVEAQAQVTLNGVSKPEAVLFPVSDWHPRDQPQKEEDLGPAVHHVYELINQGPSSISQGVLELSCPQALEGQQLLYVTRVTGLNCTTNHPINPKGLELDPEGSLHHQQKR
α5β1 integrin, sequence (P08648 895-1049 partner limits assumed): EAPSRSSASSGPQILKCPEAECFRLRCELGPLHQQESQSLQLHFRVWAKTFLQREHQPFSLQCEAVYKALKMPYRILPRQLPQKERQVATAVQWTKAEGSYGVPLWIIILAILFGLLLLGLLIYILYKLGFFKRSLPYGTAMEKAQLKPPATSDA
α5β1 integrin, sequence (P05556 21-798): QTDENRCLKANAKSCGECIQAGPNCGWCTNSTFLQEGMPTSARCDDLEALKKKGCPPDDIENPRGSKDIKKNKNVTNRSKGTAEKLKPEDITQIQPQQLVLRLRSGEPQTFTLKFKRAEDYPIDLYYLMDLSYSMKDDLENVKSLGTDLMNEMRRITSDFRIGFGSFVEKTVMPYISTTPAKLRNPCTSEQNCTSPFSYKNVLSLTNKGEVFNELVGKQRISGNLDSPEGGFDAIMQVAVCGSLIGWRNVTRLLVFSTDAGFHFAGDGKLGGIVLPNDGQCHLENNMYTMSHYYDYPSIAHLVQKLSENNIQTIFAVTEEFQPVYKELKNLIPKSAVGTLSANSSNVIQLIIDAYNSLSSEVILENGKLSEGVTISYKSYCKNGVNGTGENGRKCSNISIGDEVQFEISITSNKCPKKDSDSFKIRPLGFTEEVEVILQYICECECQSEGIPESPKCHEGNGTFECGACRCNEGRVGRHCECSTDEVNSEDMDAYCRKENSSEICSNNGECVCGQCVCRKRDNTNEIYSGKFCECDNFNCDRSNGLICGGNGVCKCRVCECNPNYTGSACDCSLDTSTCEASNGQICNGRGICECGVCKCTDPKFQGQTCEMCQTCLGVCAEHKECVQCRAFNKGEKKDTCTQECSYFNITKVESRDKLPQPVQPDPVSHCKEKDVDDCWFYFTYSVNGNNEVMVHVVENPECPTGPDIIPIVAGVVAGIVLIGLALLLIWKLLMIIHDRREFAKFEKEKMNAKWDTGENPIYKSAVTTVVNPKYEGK

SMILES	pIC50
CNc1cccc(CCOc2ccc(C[C@H](NC(=O)C3(O)CC3)C(=O)O)cc2)n1 [Example 1.6, N-[(1-hydroxycyclopropyl)carbonyl]-O-{2-[6-(methylamino)pyridin-2-yl]ethyl}-L-tyrosine]	6.02
CNc1cccc(CCOc2ccc(C[C@H](NC(=O)[C@H](C)OC)C(=O)O)cc2)n1 [Example 1.3, N-[(2S)-2-methoxypropanoyl]-O-{2-[6-(methylamino)pyridin-2-yl]ethyl}-L-tyrosine]	7.66
CCC(=O)N[C@@H](Cc1ccc(OCCc2cccc(NC)n2)cc1)C(=O)O [Example 1.9, O-{2-[6-(methylamino)pyridin-2-yl]ethyl}-N-propionyl-L-tyrosine]	6.94
COC1(C(=O)N[C@@H](Cc2ccc(OCCc3ccc4c(n3)NCCO4)cc2)C(=O)O)CCOCC1 [Example 5.3, O-[2-(3,4-dihydro-2H-pyrido[3,2-b][1,4]oxazin-6-yl)ethyl]-N-[(4-methoxytetrahydro-2H-pyran-4-yl)carbonyl]-L-tyrosine]	8.30
CNc1cccc(CCOc2ccc(C[C@H](NC(=O)C(C)(C)C)C(=O)O)cc2)n1 [Example 1.13, N-(2,2-dimethylpropanoyl)-O-{2-[6-(methylamino)pyridin-2-yl]ethyl}-L-tyrosine]	7.47
CCCCCC(=O)N[C@@H](Cc1ccc(OCCc2cccc(NC)n2)cc1)C(=O)O [Example 1.10, N-hexanoyl-O-{2-[6-(methylamino)pyridin-2-yl]ethyl}-L-tyrosine]	6.75
